US20260167656A1, “PHOSPHORAMIDATE COMPOUNDS AND USES THEREOF” (ALLORION THERAPEUTICS INC, priority 2022, published 2026)

What was measured:
[1] = tested on: non-small cell lung cancer cell line H460; assay: H460 proliferation assay in the presence of 3 uM ASP9521 (AKR1C3 specific inhibitor); assay type: cell-based, human; conditions: H460 cells, CellTiter-Glo, 72 hours, in the presence of 3 uM ASP9521 added 4 hours prior to compounds; read-out: CTG H460: Avg IC50 (nM) [Assay Condition: ASP9521]
Summary of the method: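 AKR1C3 blocked with 3 uM ASP9521 given 4 h ahead of test compounds. H460 cells, plated 24 h earlier, were then treated for 72 h at 37 °C in 5% CO2. CellTiter-Glo luminescence gave viability.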

[2] = tested on: non-small cell lung cancer cell line H460; assay: In vitro human cancer cell line cytotoxicity (proliferation) assay in H460, CellTiter-Glo, 72 hours; assay type: cell-based; conditions: DMSO condition (no AKR1C3 inhibitor), read-out: CTG H460: Avg IC50 (nM) [Assay Condition: DMSO]
Summary of the method: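 IC50s in nM come from CellTiter-Glo viability read after 72 h of compound exposure. Compounds went in from 10 mM DMSO stocks onto H460 cells, which had been plated at 3×10^3 per well and grown 24 h beforehand at 37 °C, 5% CO2.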

[3] = Homo sapiens, NCI-H460, 72 h, H460 cells

| Structure (SMILES) | IC50 [1] [nM] | IC50 ([2]; H460 cells) [nM] | IC50 [2, 3] [nM] | IC50 ([2]; Homo sapiens, NCI-H460, H460 cells) [nM] |
| --- | --- | --- | --- | --- |
| O=[N+]([O-])c1ccc2c(c1Oc1ccc(F)c(OC3CCCC3)c1)CCC2OP(=O)(N1CC1)N1CC1 (stereo not shown) [Example 479] | 1630 | < 10 |  |  |
| O=C1CCCCN1c1cccc(Oc2c([N+](=O)[O-])ccc3c2CCC3OP(=O)(N2CC2)N2CC2)c1 (stereo not shown) [Example 108] | 1710 | < 10 |  |  |
| O=[N+]([O-])c1ccc2c(c1Oc1cccc(-c3ncc(F)cn3)c1)CCC2OP(=O)(N1CC1)N1CC1 (stereo not shown) [Example 86] | 1230 |  | 10 to 50 |  |
| O=[N+]([O-])c1ccc2c(c1Oc1ccc(-c3ccc(F)cc3)cc1)OCCC2OP(=O)(N1CC1)N1CC1 (stereo not shown) [Example 132] | 1250 |  | < 10 |  |
| Cc1cnc(-c2cccc(Oc3c([N+](=O)[O-])ccc4c3CC[C@@H]4OP(=O)(N3CC3)N3CC3)c2)s1 [Example 342] | 4270 |  | 10 to 50 |  |
| O=C(c1cccc(Oc2c([N+](=O)[O-])ccc3c2CCC3OP(=O)(N2CC2)N2CC2)c1)N1CCCOCC1 (stereo not shown) [Example 105] | 1300 |  | 10 to 50 |  |
| O=[N+]([O-])c1ccc2c(c1Oc1cc(F)cc(OCC3CC3)c1)CC[C@@H]2OP(=O)(N1CC1)N1CC1 [Example 503] | 1660 |  | < 10 |  |
| CN(C)C(=O)c1cccc(Oc2c([N+](=O)[O-])ccc3c2CCC3OP(=O)(N2CC2)N2CC2)c1 (single isomer, unassigned) [Example 32] | 145 |  | < 10 |  |
| CC(OP(=O)(N1CC1)N1CC1)c1cc2cc(Oc3cccc(C(=O)N4CCOCC4)c3)c([N+](=O)[O-])cc2o1 (stereo not shown) [Example 544] | 3490 | 10 to 50 |  |  |
| O=[N+]([O-])c1ccc2c(c1Oc1ccc(F)c(-c3ccc(F)cc3)c1)CC[C@H]2OP(=O)(N1CC1)N1CC1 [Example 306] | 1990 |  |  | < 10 |
| CN1CCc2ccc(Oc3cc4c(cc3[N+](=O)[O-])CCC4OP(=O)(N3CC3)N3CC3)cc2C1=O (stereo not shown) [Example 167] | 3150 | 10 to 50 |  |  |
| O=[N+]([O-])c1ccc2c(c1Oc1ccc(F)c(OCC(F)(F)F)c1)CC[C@H]2OP(=O)(N1CC1)N1CC1 [Example 431] | 238 |  | < 10 |  |
| O=[N+]([O-])c1ccc2c(c1Oc1ccc(-c3ccncc3)cc1)CCC2OP(=O)(N1CC1)N1CC1 (stereo not shown) [Example 63] | 7430 | 10 to 50 |  |  |
| CC(OP(=O)(N1CC1)N1CC1)c1cc2cc(Oc3cccc(C(=O)N(C)C)c3)c([N+](=O)[O-])cc2o1 (single isomer, unassigned) [Example 233] | 3890 | < 10 |  |  |
| O=C1CCCCN1c1cccc(Oc2c([N+](=O)[O-])ccc3c2CCC3OP(=O)(N2CC2)N2CC2)c1 (stereo not shown) [Example 410] | 4660 | 10 to 50 |  |  |
| O=[N+]([O-])c1cc2c(cc1Oc1ccc(-c3cccnc3)cc1)C(OP(=O)(N1CC1)N1CC1)CC2 (stereo not shown) [Example 187] | > 10000 |  | 10 to 50 |  |
| O=[N+]([O-])c1cc2c(cc1Oc1ccc(-c3ccccn3)cc1)C(OP(=O)(N1CC1)N1CC1)CC2 (single isomer, unassigned) [Example 189] | 1190 | < 10 |  |  |
| O=C1c2cc(Oc3cc4c(cc3[N+](=O)[O-])OCCC4OP(=O)(N3CC3)N3CC3)ccc2CN1C1CC1 (single isomer, unassigned) [Example 203] | 959 |  | < 10 |  |
| O=[N+]([O-])c1ccc2c(c1Oc1ccc(-c3ccncc3)cc1)CC[C@H]2OP(=O)(N1CC1)N1CC1 [Example 274] | 7430 | 10 to 50 |  |  |
| CC(OP(=O)(N1C[C@@H]1C)N1C[C@@H]1C)c1ccc([N+](=O)[O-])c(Oc2ccc(C(=O)N(C)C)cc2)c1 (stereo partly shown) [Example 214] | 913 | < 10 |  |  |
| O=C(c1cccc(Oc2c([N+](=O)[O-])ccc3c2CCC3OP(=O)(N2CC2)N2CC2)c1)N1CCCCC1 (stereo not shown) [Example 236] | 715 | < 10 |  |  |
| Cn1nnc(-c2cc(Oc3c([N+](=O)[O-])ccc4c3CC[C@@H]4OP(=O)(N3CC3)N3CC3)ccc2F)n1 [Example 355] | 1130 |  | < 10 |  |
| O=[N+]([O-])c1ccc2c(c1Oc1ccc(F)c(C3CC3)c1)CCC2OP(=O)(N1CC1)N1CC1 (stereo not shown) [Example 335] | 1910 | < 10 |  |  |
| CC(C)COc1cc(Oc2c([N+](=O)[O-])ccc3c2CC[C@H]3OP(=O)(N2CC2)N2CC2)ccc1F [Example 499] | 918 |  | < 10 |  |
| Cn1c(=O)oc2ccc(Oc3c([N+](=O)[O-])ccc4c3CC[C@@H]4OP(=O)(N3CC3)N3CC3)cc21 [Example 380] | 722 |  | < 10 |  |
| O=[N+]([O-])c1ccc2c(c1Oc1cccc(-c3cnn(C4CC4)c3)c1)CCC2OP(=O)(N1CC1)N1CC1 (stereo not shown) [Example 96] | 5270 | 10 to 50 |  |  |
